From paper PMC8913300, “Two distinct classes of cochaperones compete for the EEVD motif in heat shock protein 70 to tune its chaperone activities” (The Journal of Biological Chemistry, 2022) come the findings set out here.

Data set [1] concerns the target T1, DnaJB4 (Homo sapiens, UniProt Q9UDY4).
T1 construct: 6-His with TEV-cleavable linker (N, cleaved yes); made in house; host or cells: Escherichia coli BL21 (DE3) Rosetta
Nature of the data set: Fluorescence polarization saturation binding of Hsp72 tracer to DnaJB4. The note with it: Fig. 8A right; FP saturation binding, 20 nM tracer, JDP binding buffer pH 8.0, 30 min room temperature; mean with 95% confidence interval, four replicates. The procedure:
(§1) All FP experiments were performed in 384-well, black, low-volume, round-bottom plates at a final assay volume of 18 μl (Corning 4511). Polarization values in millipolarization units (mP) were measured at an excitation wavelength of 485 nm and an emission wavelength of 525 nm, with 100 flashes per read using a Spectramax M5 plate reader (Molecular Devices). All experiments were performed 2 times in quadruplicate. Experimental data were analyzed using GraphPad Prism 9. Saturation binding data were background subtracted, and curves were fit using the model [Agonist] versus response (three parameters). For competition experiments, data were background subtracted to tracer alone and normalized to DMSO control to determine relative tracer displacement.
(§2) A sample of 20 nM Hsp72 tracers (FITC-Ahx-GSGPTIEEVD or FITC-Ahx-GSGPEIEEVD) was incubated with various concentrations of DnaJB4 (WT or QPD mutant) or CHIP in 2× dilutions (final [protein] = 110–0.013 μM) in binding buffer (JDP binding buffer = 50 mM Tris, 15 mM NaCl, 1 mM DTT, 0.01% Triton X-100, pH 8.0; CHIP binding buffer = 25 mM Hepes, 50 mM KCl, 0.01% Triton X-100, pH 7.4). The plate was covered from light and allowed to incubate at room temperature for 30 min prior to reading.
A general note: In fluorescence polarisation assays a small probe gives low polarisation when free and higher when bound to something large.

Data set [2] concerns the target T2, DnaJB4 QPD mutant (Homo sapiens, UniProt Q9UDY4, H32Q).
T2 construct: 6-His with TEV-cleavable linker (N, cleaved yes); made in house; host or cells: Escherichia coli BL21 (DE3) Rosetta
The experiment in a line: Fluorescence polarization saturation binding of Hsp72 tracer to DnaJB4 QPD mutant. The conditions noted are these: Fig. 2D, FP saturation binding, 20 nM tracer, 30 min room temperature, mean with 95% confidence interval, four replicates. As to the method: as §1, §2

Data set [3] has as its system Hsp72–DnaJB4 complex. Nature of the data set: Luciferase refolding by Hsp72/DnaJB4 in the presence of TPR cochaperones. The conditions noted are these: 1 μM Hsp72, 100 nM denatured luciferase, 120 nM DnaJB4; CHIP titration or 10 μM TPR protein; 1 h at 37 °C. It is filed as biochemical. The procedure:
Experiments were performed as described ([14]). Briefly, Renilla luciferase (Promega) was denatured in 8 M GdnHCl for 2 h at room temperature. Hsp72 (1 μM) and denatured luciferase (100 nM) were diluted into a working concentration in buffer containing an ATP regenerating system (23 mM Hepes, 120 mM KAc, 1.2 mM MgAc, 15 mM DTT, 61 mM creatine phosphate, 35 units/ml creatine kinase, and 5 ng/μl bovine serum albumin, pH 7.4). A titration series of DnaJB4 was added, and the reaction was initiated with the addition of 2.5 mM ATP. For competition assays with DnaJB4, complexes of Hsp72 (1 μM), denatured luciferase (100 nM), and DnaJB4 (120 nM) were incubated with either a titration of CHIP or 10 μM of indicated TPR protein. In all cases, the assay was allowed to incubate for 1 h at 37 °C in white, 96-well flat-bottom plates (Corning 3990). Luminescence was measured using the SteadyGlo luminescence reagent (Promega), and percent refolded luciferase was calculated using a standard curve of 100 to 0 nM native luciferase.

Data set [4] concerns Hsp72–DnaJB4 complex. The experiment in a line: CHIP inhibition of DnaJB4-stimulated Hsp72 ATPase activity. Format: biochemical. The conditions noted are these: 25 μM CHIP, 40-fold excess relative to DnaJB4 (625 nM). As to the method: (§3) ATPase assays were carried out using the malachite green assay as described ([14], [83]). In brief, 1 μM Hsp72 and various concentrations of DnaJB4 were added to clear 96-well plates, and the reactions were initiated by addition of 2.5 mM ATP. Reactions were allowed to proceed for 1 h at 37 °C, after which they were developed using malachite green reagent and quenched with sodium citrate. Plate absorbance was measured at 620 nm, and a standard curve of sodium phosphate was used to convert the absorbance values to pmol ATP/μM Hsp72/min. Vmax and Km, app were derived as fit parameters to a modified Michaelis–Menten model (ATPase rate=Vmax∗[DnaJB4]/(Km, app+[DnaJB4])) where Vmax reflects the maximal increased ATP hydrolysis conferred by DnaJB4 binding and Km,app represents the half-maximal concentration of DnaJB4 binding to and stimulating the ATPase activity of Hsp72.

Data set [5] deals with Hsp70–CHIP complex. Nature of the data set: In vitro ubiquitination of Hsc70 by CHIP in the presence of DnaJB4. It is filed as biochemical. The conditions noted are these: 1 μM CHIP, 1 μM FAM-labeled Hsc70, increasing DnaJB4, 10 min room temperature. The procedure: (§4) Four 4 × stock solutions were prepared containing (i) Ube1 (R&D Systems) + UbcH5c/UBE2D3 (R&D Systems) (400 nM Ube1 and 4 μM UbcH5c), (ii) Ubiquitin (R&D Systems) (1 mM Ub), (iii) CHIP + substrate + DnaJB4 (4 μM CHIP, 4 μM substrate, varying concentrations of DnaJB4), and (iv) ATP + MgCl2 (10 mM ATP and 10 mM MgCl2) in ubiquitination assay buffer (50 mM Tris pH 8.0, 15 mM NaCl). CHIP + substrate + DnaJB4 solutions were allowed to equilibrate at room temperature for 30 min prior to initiating the reaction. Ubiquitination reactions were generated by adding 10 μl of each 4 × stock, in order from 1 to 4, for a final volume of 40 μl(100 nM Ube1, 1 μM UbcH5c, 250 μM ubiquitin, 2.5 mM ATP, 2.5 mM MgCl2, 1 μM CHIP and 1 μM substrate). […] Samples were separated by SDS-PAGE on 4% to 20% polyacrylamide gels (Bio-Rad) and analyzed by in-gel fluorescence on a Chemidoc Imager (Bio-Rad) using the SYBR green fluorescence setting or by staining with Coomassie blue reagent. Quantitation of substrate ubiquitination was performed by densitometry analysis in ImageJ (NIH), which was thresholded to a no-CHIP control.
(§5) Substrates for in vitro ubiquitination assays were labeled with 6-carboxyfluorescein (FAM) to enable in-gel fluorescence measurement of ubiquitination as described ([35]). […]

Data set [6] relates to MAPT/tau ubiquitination by CHIP. Nature of the data set: In vitro ubiquitination of MAPT/tau by CHIP in the presence of DnaJB4. The note with it: 1 μM CHIP, tau substrate, 30 min room temperature. Format: biochemical. As to the method: Four 4 × stock solutions were prepared containing (i) Ube1 (R&D Systems) + UbcH5c/UBE2D3 (R&D Systems) (400 nM Ube1 and 4 μM UbcH5c), (ii) Ubiquitin (R&D Systems) (1 mM Ub), (iii) CHIP + substrate + DnaJB4 (4 μM CHIP, 4 μM substrate, varying concentrations of DnaJB4), and (iv) ATP + MgCl2 (10 mM ATP and 10 mM MgCl2) in ubiquitination assay buffer (50 mM Tris pH 8.0, 15 mM NaCl). CHIP + substrate + DnaJB4 solutions were allowed to equilibrate at room temperature for 30 min prior to initiating the reaction. Ubiquitination reactions were generated by adding 10 μl of each 4 × stock, in order from 1 to 4, for a final volume of 40 μl(100 nM Ube1, 1 μM UbcH5c, 250 μM ubiquitin, 2.5 mM ATP, 2.5 mM MgCl2, 1 μM CHIP and 1 μM substrate). Reactions were incubated at room temperature (10 min for chaperone ubiquitination, 30 min for tau ubiquitination), quenched in 20 μl 3 × SDS-PAGE loading buffer (188 mM Tris-HCl pH 6.8, 3% SDS, 30% glycerol, 0.01% bromophenol blue, 15% β-mercaptoethanol), and heated to 95 °C for 5 min. Samples were separated by SDS-PAGE on 4% to 20% polyacrylamide gels (Bio-Rad) and analyzed by in-gel fluorescence on a Chemidoc Imager (Bio-Rad) using the SYBR green fluorescence setting or by staining with Coomassie blue reagent. Quantitation of substrate ubiquitination was performed by densitometry analysis in ImageJ (NIH), which was thresholded to a no-CHIP control. […]

In data set [7] the test system is Hsp72 ΔEEVD. The experiment in a line: DnaJB4 stimulation of ATPase activity of Hsp72 ΔEEVD (malachite green). It is filed as biochemical. The conditions noted are these: Hsp72 ΔEEVD mutant. As to the method: as §3
Data set [8] relates to Hsp90⍺ ubiquitination by CHIP. The experiment in a line: In vitro ubiquitination of Hsp90⍺ by CHIP in the presence of DnaJB4. Format: biochemical. The note with it: 1 μM CHIP, 1 μM FAM-labeled Hsp90⍺, increasing DnaJB4, 10 min room temperature. As to the method:
as §4, §5

For data set [9], the system named is WT Hsp72. The experiment in a line: DnaJB4 stimulation of ATPase activity of WT Hsp72 (malachite green). It is filed as biochemical. The procedure:
as §3

Data set [10] has as its system Hsp72 I637A. The experiment in a line: DnaJB4 stimulation of ATPase activity of Hsp72 I637A (malachite green). It is filed as biochemical. The procedure:
as §3

T1 sequence (Q9UDY4 whole entry): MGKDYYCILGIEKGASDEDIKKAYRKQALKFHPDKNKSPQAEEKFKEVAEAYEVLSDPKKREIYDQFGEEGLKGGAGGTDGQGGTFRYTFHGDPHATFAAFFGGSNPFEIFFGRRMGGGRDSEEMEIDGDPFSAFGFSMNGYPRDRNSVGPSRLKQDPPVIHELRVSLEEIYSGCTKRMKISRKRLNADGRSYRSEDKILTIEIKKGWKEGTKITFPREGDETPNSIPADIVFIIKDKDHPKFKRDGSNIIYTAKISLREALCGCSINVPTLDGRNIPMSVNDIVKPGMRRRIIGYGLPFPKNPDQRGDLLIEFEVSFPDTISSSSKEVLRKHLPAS
T2 sequence (Q9UDY4 whole entry H32Q): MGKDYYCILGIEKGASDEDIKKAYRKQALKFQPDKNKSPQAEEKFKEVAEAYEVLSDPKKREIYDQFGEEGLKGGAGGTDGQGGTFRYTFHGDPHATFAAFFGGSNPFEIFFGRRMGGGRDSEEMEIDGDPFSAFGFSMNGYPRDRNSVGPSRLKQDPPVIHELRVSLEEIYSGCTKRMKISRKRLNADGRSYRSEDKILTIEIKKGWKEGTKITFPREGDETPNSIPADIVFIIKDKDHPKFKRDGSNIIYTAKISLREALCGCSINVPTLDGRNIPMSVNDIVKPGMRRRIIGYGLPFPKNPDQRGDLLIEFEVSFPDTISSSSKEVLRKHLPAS

The term Kd denotes the equilibrium constant for the complex coming apart. For the compound `CC[C@H](C)[C@H](NC(=O)[C@@H](NC(=O)[C@@H]1CCCN1C(=O)CNC(=O)[C@H](CO)NC(=O)CNC(=O)CCCCCNC(=S)Nc1ccc2c(c1)C(=O)OC21c2ccc(O)cc2Oc2cc(O)ccc21)[C@@H](C)O)C(=O)N[C@@H](CCC(=O)O)C(=O)N[C@@H](CCC(=O)O)C(=O)N[C@H](C(=O)N[C@@H](CC(=O)O)C(=O)O)C(C)C` [Hsp72 tracer], the values for the Kd in data set [1] and in data set [2] were 1970 ± 280 nM and 2440 ± 280 nM, respectively.
Regarding “CHIP: C terminus of Hsc70 interacting protein, E3 ubiquitin ligase, TPR cochaperone, recombinant human”, the “effect on client (luciferase) refolding by Hsp72–DnaJB4” value in [3] is on record as “potent inhibitor”. Besides, the “inhibition of DnaJB4-stimulated ATPase activity” value in data set [4] was “significant inhibition”.
Regarding “DnaJB4: representative class B J-domain protein, recombinant, full length”, in [5], the “effect on Hsp70 ubiquitination by CHIP” value is on record as “dose-dependent inhibition”. The “effect on ubiquitination of Hsc70 and tau by CHIP” value in data set [6] is given as “suppressed”. Besides, the “stimulation of ATPase activity” value in data set [7] is on record as “unable to stimulate”. In data set [8], the “effect on Hsp90 ubiquitination by CHIP” value is given as “no effect”. Moreover, the “stimulation of Vmax,app over baseline” value in data set [9] (WT Hsp72) was ~4 fold. Also, the “maximum ATPase activity (Vmax,app)” value in data set [9] (WT Hsp72 1 μM, DnaJB4 titration, 2.5 mM ATP, 1 h at 37 °C, Michaelis–Menten fit) stood at 37.8 ± 3.5 pmol ATP/min. The Km in data set [9] (WT Hsp72 1 μM, DnaJB4 titration, Michaelis–Menten fit, read-out: half-maximal concentration (Km,app)) is ~0.06 µM; in data set [10] (Hsp72 I637A 1 μM, DnaJB4 titration, Michaelis–Menten fit, read-out: Km,app), ~0.01 µM. Further, the “Vmax,app above baseline” value in data set [10] (Hsp72 I637A) is given as ~2 fold. Moreover, the “Vmax,app” value in [10] (Hsp72 I637A 1 μM, DnaJB4 titration, 2.5 mM ATP, 1 h at 37 °C, Michaelis–Menten fit) is on record as 23.9 ± 3.6 pmol ATP/min.
